From patent publication US10670605B2, “Cysteine reactive probes and uses thereof” (The Scripps Research Institute, priority 2015, dated 2020)
Values belong to the molecule of their own block, whether it stands above or below them.

Experiments:
Assay in all cases: Competitive isoTOP-ABPP, cell lysates;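 as to isoTOP-ABPP reactivity profile ratio, O00170 C122: Heavy/light ratio DMSO over fragment-treated so higher means more cysteine engagement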;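 as to isoTOP-ABPP reactivity profile ratio, Q15084 C190: Heavy/light ratio DMSO over fragment-treated so higher means more cysteine engagement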
Assay type in all cases: binding
Conditions in all cases: 500 μm, in-vitro_ramos_231
GNB2L1 C182 (P63244) = GNB2L1 C182 (P63244) (Homo sapiens, UniProt P63244)
Procedure: (§1) TEV digests were pressure loaded onto a 250 μm (inner diameter) fused silica capillary column packed with C18 resin (Aqua 5 μm, Phenomenex). The samples were analyzed by multidimensional liquid chromatography tandem mass spectrometry (MudPIT), using an LTQ-Velos Orbitrap mass spectrometer (Thermo Scientific) coupled to an Agilent 1200-series quaternary pump. The peptides were eluted onto a biphasic column with a 5 μm tip (100 μm fused silica, packed with C18 (10 cm) and bulk strong cation exchange resin (3 cm, SCX, Phenomenex,)) in a 5-step MudPIT experiment, using 0%, 30%, 60%, 90%, and 100% salt bumps of 500 mM aqueous ammonium acetate and using a gradient of 5-100% buffer B in buffer A (buffer A: 95% water, 5% acetonitrile, 0.1% formic acid; buffer B: 5% water, 95% acetonitrile, 0.1% formic acid) as has been described in Weerapana et al. Nat Protoc 2:1414-1425 (2007). Data was collected in data-dependent acquisition mode with dynamic exclusion enabled (20 s, repeat of 2). One full MS (MS1) scan (400-1800 m/z) was followed by 30 MS2 scans (ITMS) of the nth most abundant ions.
(§2) The ratios of heavy/light for each unique peptide (DMSO/compound treated; isoTOP-ABPP ratios, R values) were quantified with in-house CIMAGE software, using default parameters (3 ms s per peak and signal to noise threshold 2.5). Site-specific engagement of electrophilic fragments was assessed by blockade of IA-alkyne probe labeling. […] Ratios for unique peptide entries were calculated for each experiment; overlapping peptides with the same modified cysteine (e.g. different charge states, MudPIT chromatographic steps or tryptic termini) were grouped together and the median ratio was reported as the final ratio (R). The peptide ratios reported by CIMAGE were further filtered to ensure the removal or correction of low quality ratios in each individual dataset. The quality filters applied were the following: removal of half tryptic peptides; for ratios with high standard deviations from the median (90% of the median or above) the lowest ratio was taken instead of the median; removal of peptides with R=20 and only a single ms2 event triggered during the elution of the parent ion; manual annotation of all the peptides with ratios of 20, removing any peptides with low-quality elution profiles that remained after the previous curation steps. Proteome reactivity values for individual fragments were computed as the percentage of the total quantified cysteine-containing peptides with R values≥4 (defined as liganded cysteines) for each replicate experiment and the final proteome reactivity value was calculated as the mean for all replicate experiments for each fragment from both MDA-MB-231 and Ramos cellular proteomes.
(§3) Biological replicates of the same compound and cell-line were averaged if the standard deviation was below 60% of the mean; otherwise the lowest value of the ratio set was taken.

GSTP1 C48 (P09211) = GSTP1 C48 (P09211) (Homo sapiens, UniProt P09211)
Procedure: as §1, §2, §3

PDE12 C108 (Q6L8Q7) = target: T1, PDE12 C108 (Q6L8Q7) (Homo sapiens, UniProt Q6L8Q7)
T1 sequence (Q6L8Q7 43-609): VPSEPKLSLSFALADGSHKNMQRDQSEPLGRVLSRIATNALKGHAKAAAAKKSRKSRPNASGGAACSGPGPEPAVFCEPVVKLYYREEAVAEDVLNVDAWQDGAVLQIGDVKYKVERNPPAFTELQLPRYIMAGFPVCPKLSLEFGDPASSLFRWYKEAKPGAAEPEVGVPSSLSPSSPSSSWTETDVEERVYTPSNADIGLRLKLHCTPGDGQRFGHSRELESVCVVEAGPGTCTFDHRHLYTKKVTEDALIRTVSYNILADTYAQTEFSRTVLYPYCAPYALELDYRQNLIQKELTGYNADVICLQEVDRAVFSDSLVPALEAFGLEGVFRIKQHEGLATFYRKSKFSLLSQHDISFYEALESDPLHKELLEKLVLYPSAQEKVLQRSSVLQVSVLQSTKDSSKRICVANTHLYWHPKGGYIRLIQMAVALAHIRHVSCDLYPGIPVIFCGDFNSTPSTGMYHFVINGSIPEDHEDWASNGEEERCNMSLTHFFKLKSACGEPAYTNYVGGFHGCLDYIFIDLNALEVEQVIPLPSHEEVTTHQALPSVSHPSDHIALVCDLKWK
Procedure: as §1, §2, §3

PDIA6 C190 (Q15084) = target: T2, PDIA6 C190 (Q15084) (Homo sapiens, UniProt Q15084);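 as to isoTOP-ABPP reactivity profile ratio, Q15084 C190: Heavy/light ratio DMSO over fragment-treated so higher means more cysteine engagement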
T2 sequence (Q15084 20-440): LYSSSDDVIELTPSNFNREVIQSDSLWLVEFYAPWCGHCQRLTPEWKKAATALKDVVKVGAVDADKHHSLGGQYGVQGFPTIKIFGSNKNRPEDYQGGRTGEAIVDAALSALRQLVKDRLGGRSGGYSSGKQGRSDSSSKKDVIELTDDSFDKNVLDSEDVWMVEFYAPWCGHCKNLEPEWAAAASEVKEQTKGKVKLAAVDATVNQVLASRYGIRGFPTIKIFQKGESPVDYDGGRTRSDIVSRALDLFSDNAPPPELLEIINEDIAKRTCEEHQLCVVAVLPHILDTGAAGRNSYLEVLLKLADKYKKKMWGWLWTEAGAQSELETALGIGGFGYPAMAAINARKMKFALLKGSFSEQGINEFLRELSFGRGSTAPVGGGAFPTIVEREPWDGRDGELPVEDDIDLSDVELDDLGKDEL
Procedure: as §1, §2, §3

PDIA6 C55 (Q15084) = target: T3, PDIA6 C55 (Q15084) (Homo sapiens, UniProt Q15084)
T3 sequence (Q15084 20-440): T2 sequence (Q15084 20-440)
Procedure: as §1, §2, §3

PRMT1 C109 (Q99873) = PRMT1 C109 (Q99873) (Homo sapiens, UniProt Q99873)
Procedure: as §1, §2, §3

SAMHD1 C522 (Q9Y3Z3) = SAMHD1 C522 (Q9Y3Z3) (Homo sapiens, UniProt Q9Y3Z3)
Procedure: as §1, §2, §3

SMARCC2 C145 (Q8TAQ2) = SMARCC2 C145 (Q8TAQ2) (Homo sapiens, UniProt Q8TAQ2)
Procedure: as §1, §2, §3

UBE2L3 C86 (P68036) = UBE2L3 C86 (P68036) (Homo sapiens, UniProt P68036)
Procedure: as §1, §2, §3

UBE2S C118 (Q16763) = target: T4, UBE2S C118 (Q16763) (Homo sapiens, UniProt Q16763)
T4 sequence (Q16763 1-222): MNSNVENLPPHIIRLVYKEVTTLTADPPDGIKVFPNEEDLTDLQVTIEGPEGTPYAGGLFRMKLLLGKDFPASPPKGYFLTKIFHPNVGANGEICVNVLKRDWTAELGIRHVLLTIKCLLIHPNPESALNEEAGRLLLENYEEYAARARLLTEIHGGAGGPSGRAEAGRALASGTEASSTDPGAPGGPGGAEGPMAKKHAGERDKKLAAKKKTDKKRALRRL
Procedure: as §1, §2, §3

XPO1 C34 (O14980) = XPO1 C34 (O14980) (Homo sapiens, UniProt O14980)
Procedure: as §1, §2, §3

ZNF217 C286 (O75362) = ZNF217 C286 (O75362) (Homo sapiens, UniProt O75362)
Procedure: as §1, §2, §3

ACAT1 C119 (P24752) = target: T5, ACAT1 C119 (P24752) (Homo sapiens, UniProt P24752)
T5 sequence (P24752 34-427): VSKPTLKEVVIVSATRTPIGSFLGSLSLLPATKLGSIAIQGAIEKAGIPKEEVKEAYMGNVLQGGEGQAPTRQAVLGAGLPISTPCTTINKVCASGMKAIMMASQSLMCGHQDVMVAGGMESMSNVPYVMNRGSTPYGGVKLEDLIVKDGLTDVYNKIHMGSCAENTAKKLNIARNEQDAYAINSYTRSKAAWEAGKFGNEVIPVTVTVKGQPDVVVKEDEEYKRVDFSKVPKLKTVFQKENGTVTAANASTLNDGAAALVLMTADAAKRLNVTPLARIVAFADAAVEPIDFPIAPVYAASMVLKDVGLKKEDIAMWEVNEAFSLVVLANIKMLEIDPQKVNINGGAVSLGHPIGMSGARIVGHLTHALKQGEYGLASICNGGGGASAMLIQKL

ACAT1 C196 (P24752) = target: T6, ACAT1 C196 (P24752) (Homo sapiens, UniProt P24752)
T6 sequence (P24752 34-427): T5 sequence (P24752 34-427)

ACAT1 C413 (P24752) = target: T7, ACAT1 C413 (P24752) (Homo sapiens, UniProt P24752)
T7 sequence (P24752 34-427): T5 sequence (P24752 34-427)

AIP C122 (O00170) = target: T8, AIP C122 (O00170) (Homo sapiens, UniProt O00170);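 also: Heavy/light ratio DMSO over fragment-treated so higher means more cysteine engagement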
T8 sequence (O00170 1-330): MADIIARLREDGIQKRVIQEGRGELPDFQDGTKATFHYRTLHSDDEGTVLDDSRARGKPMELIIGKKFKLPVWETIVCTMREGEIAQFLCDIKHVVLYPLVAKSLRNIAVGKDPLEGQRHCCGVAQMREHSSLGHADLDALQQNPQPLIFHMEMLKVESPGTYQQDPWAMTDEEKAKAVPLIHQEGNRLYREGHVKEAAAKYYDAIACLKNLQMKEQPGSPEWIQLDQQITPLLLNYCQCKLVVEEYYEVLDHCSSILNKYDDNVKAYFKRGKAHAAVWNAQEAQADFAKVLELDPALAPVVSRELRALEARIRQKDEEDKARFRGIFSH
Procedure: as §1, §2, §3

LRBA C1704 (P50851) = LRBA C1704 (P50851) (Homo sapiens, UniProt P50851)
Procedure: as §1, §2, §3

ACAT1 C126 (P24752) = target: T9, ACAT1 C126 (P24752) (Homo sapiens, UniProt P24752)
T9 sequence (P24752 34-427): T5 sequence (P24752 34-427)

isoTOP-ABPP reactivity ratio, P63244_C182 (GNB2L1 C182 (P63244)): 1.0
isoTOP-ABPP reactivity ratio, P09211_C48 (GSTP1 C48 (P09211)): 2.0
isoTOP-ABPP reactivity ratio, Q6L8Q7_C108 (PDE12 C108 (Q6L8Q7)): 3.2
isoTOP-ABPP reactivity ratio, Q15084_C190 (PDIA6 C190 (Q15084)): 7.0
isoTOP-ABPP reactivity ratio, Q15084_C55 (PDIA6 C55 (Q15084)): 3.9
isoTOP-ABPP reactivity ratio, Q99873_C109 (PRMT1 C109 (Q99873)): 1.5
isoTOP-ABPP reactivity ratio, Q9Y3Z3_C522 (SAMHD1 C522 (Q9Y3Z3)): 1.1
isoTOP-ABPP reactivity ratio, Q8TAQ2_C145 (SMARCC2 C145 (Q8TAQ2)): 1.2
isoTOP-ABPP reactivity ratio, P68036_C86 (UBE2L3 C86 (P68036)): 1.9
isoTOP-ABPP reactivity ratio, Q16763_C118 (UBE2S C118 (Q16763)): 1.4
isoTOP-ABPP reactivity ratio, O14980_C34 (XPO1 C34 (O14980)): 1.3
isoTOP-ABPP reactivity ratio, O75362_C286 (ZNF217 C286 (O75362)): 20.0
isoTOP-ABPP reactivity ratio, P24752_C119 (ACAT1 C119 (P24752)): 1.7
isoTOP-ABPP reactivity ratio, P24752_C196 (ACAT1 C196 (P24752)): 3.0
isoTOP-ABPP reactivity ratio, P24752_C413 (ACAT1 C413 (P24752)): 2.7
SMILES: COC(=O)C1Cc2ccccc2CN1C(=O)CCl (stereo not shown) [compound 39]

isoTOP-ABPP reactivity profile ratio, O00170_C122 (AIP C122 (O00170)): 4.8
isoTOP-ABPP reactivity profile ratio, P50851_C1704 (LRBA C1704 (P50851)): 4.0
isoTOP-ABPP reactivity profile ratio, Q15084_C190 (PDIA6 C190 (Q15084)): 7.7
isoTOP-ABPP reactivity profile ratio, Q15084_C55 (PDIA6 C55 (Q15084)): 12.8
isoTOP-ABPP reactivity profile ratio, Q99873_C109 (PRMT1 C109 (Q99873)): 2.0
isoTOP-ABPP reactivity profile ratio, Q9Y3Z3_C522 (SAMHD1 C522 (Q9Y3Z3)): 3.0
isoTOP-ABPP reactivity profile ratio, P68036_C86 (UBE2L3 C86 (P68036)): 1.9
isoTOP-ABPP reactivity profile ratio, O14980_C34 (XPO1 C34 (O14980)): 1.9
isoTOP-ABPP reactivity profile ratio, O75362_C286 (ZNF217 C286 (O75362)): 1.0
isoTOP-ABPP reactivity profile ratio, P24752_C119 (ACAT1 C119 (P24752)): 4.9
isoTOP-ABPP reactivity profile ratio, P24752_C196 (ACAT1 C196 (P24752)): 4.7
isoTOP-ABPP reactivity profile ratio, P24752_C413 (ACAT1 C413 (P24752)): 2.6
isoTOP-ABPP reactivity profile ratio, P24752_C126 (ACAT1 C126 (P24752)): 20.0
SMILES: Cc1ccc(C(F)(F)F)cc1NC(=O)CCl [compound 49]
